Laboratory results from patent US11149033B2, “Heteroaryl compound, enantiomer, diastereomer or pharmaceutically acceptable salt thereof, and antiviral composition containing same as active ingredient” (priority 2016, dated 2021).

What was measured:
B/Florida/04/2006 = assay: Antiviral activity (drug efficacy evaluation by concentration) against B/Florida/04/2006; format: cell-based, B type influenza virus
[1] = tested on: A/California/07/2009 (H1N1); assay: Antiviral activity (drug efficacy evaluation by concentration) against A/California/07/2009 (H1N1); format: cell-based, A type influenza virus; settings: Influenza A virus, H1N1; read-out: EC50
A/Perth/16/2009 (H3N2) = assay: Antiviral activity (drug efficacy evaluation by concentration) against A/Perth/16/2009 (H3N2); format: cell-based, A type influenza virus; settings: Influenza A virus, H3N2; read-out: EC50
[2] = CC50, third EC50/CC50 column pair (c7), beside the EC50 of c6

Row | SMILES | EC50 (B/Florida/04/2006) [µM] | EC50 [1] [µM] | EC50 (A/Perth/16/2009 (H3N2)) [µM] | CC50 (in vitro; CC50, beside the EC50 of c2) [µM] | CC50 (in vitro; CC50, beside the EC50 of c4) [µM] | CC50 (in vitro; [2]) [µM] | melting point [°C]
1 | CC(C)c1ccccc1CCc1nnc(Cc2cccc(Cl)c2)o1 [Compound 102, 2-(3-chlorobenzyl)-5-(2-isopropylphenethyl)-1,3,4-oxadiazole] | 2.14 | 1.7 | 1.5 | 47.7 | > 50 | > 50 | –
2 | Cc1ccccc1CCc1nnc(Cc2ccc(Br)cc2)o1 [Compound 103, 2-(4-bromobenzyl)-5-(2-methylphenethyl)-1,3,4-oxadiazole] | 3.15 | 3.1 | 3 | > 50 | > 50 | > 50 | –
3 | Brc1cccc(Cc2nnc(SCc3ccccc3-c3ccccc3)o2)c1 [Compound 104, 2-(([1,1′-biphenyl]-2-ylmethyl)thio)-5-(3-bromobenzyl)-1,3,4-oxadiazole] | 42.8 | > 50 | > 50 | > 50 | > 50 | > 50 | –
4 | FC(F)(F)Oc1ccc(Cc2nnc(SCc3ccccc3-c3ccccc3)o2)cc1 [Compound 106, 2-(([1,1′-biphenyl]-2-ylmethyl)thio)-5-(4-(trifluoromethoxy)benzyl)-1,3,4-oxadiazole] | 12.1 | 11.5 | 11.8 | > 50 | > 50 | > 50 | –
5 | Brc1ccc(Cc2nnc(CC3CCCc4ccccc43)o2)cc1 (stereo not drawn) [Compound 109, 2-(4-bromobenzyl)-5-((1,2,3,4-tetrahydronaphthalen-1-yl)methyl)-1,3,4-oxadiazole] | 34.7 | 45.9 | 32.4 | > 50 | > 50 | > 50 | –
6 | Cc1ccccc1C(C)Cc1nnc(Cc2ccc(Br)cc2)o1 (stereo not drawn) [Compound 110, 2-(4-bromobenzyl)-5-(2-(o-tolyl)propyl)-1,3,4-oxadiazole] | 46.7 | 32.2 | 41.5 | 46.7 | > 50 | > 50 | –
7 | Cc1cc(C)cc(Cc2nnc(/C=C/c3ccccc3C(C)C)o2)c1 [Compound 113, 2-(3,5-dimethylbenzyl)-5-(2-isopropylstyryl)-1,3,4-oxadiazole] | 1.55 | 1.37 | 1.39 | 10 | 25.5 | 40.2 | –
8 | CC(C)c1ccccc1OCc1nnc(Cc2ccccc2)o1 [Compound 114, 2-benzyl-5-((2-isopropylphenoxy)methyl)-1,3,4-oxadiazole] | 12 | 17.7 | 17.7 | 21.8 | > 50 | > 50 | –
9 | CC(C)c1ccccc1OCc1nnc(Cc2ccc(Br)cc2)o1 [Compound 115, 2-(4-bromobenzyl)-5-((2-isopropylphenoxy)methyl)-1,3,4-oxadiazole] | 45.1 | 44.9 | 38.2 | > 50 | > 50 | > 50 | –
10 | Brc1ccc(Nc2nnc(CCc3ccccc3-c3ccccc3)o2)cc1 [Compound 118, 5-(2-([1,1′-biphenyl]-2-yl)ethyl)-N-(4-bromophenyl)-1,3,4-oxadiazol-2-amine] | > 50 | 43.9 | > 50 | > 50 | > 50 | > 50 | –
11 | Brc1ccc(Cc2nnc(CCc3ccccc3-c3ccccc3)o2)cc1 [Compound 119, 2-(2-([1,1′-biphenyl]-2-yl)ethyl)-5-(4-bromobenzyl)-1,3,4-oxadiazole] | > 50 | > 50 | > 50 | > 50 | > 50 | > 50 | –
12 | CC(C)c1ccc(Cc2nnc(/C=C/c3ccccc3C(C)C)o2)cc1 [Compound 133, 2-(4-isopropylbenzyl)-5-(2-isopropylstyryl)-1,3,4-oxadiazole] | 1.97 | 2.66 | 1.4 | > 50 | > 50 | > 50 | –
13 | Cc1cccc(C)c1CCc1nnc(Cc2ccc(Br)cc2)o1 [Compound 135, 2-(4-bromobenzyl)-5-(2,6-dimethylphenethyl)-1,3,4-oxadiazole] | 5.63 | 6.4 | 4.38 | > 50 | > 50 | > 50 | –
14 | Cc1ccccc1CC(C)c1nnc(Cc2ccc(Br)cc2)o1 (stereo not drawn) [Compound 140, 2-(4-bromobenzyl)-5-(1-(o-tolyl)propan-2-yl)-1,3,4-oxadiazole] | 14.1 | 18.2 | 19.9 | > 50 | > 50 | > 50 | –
15 | C/C(=C\c1ccccc1C)c1nnc(Cc2ccc(Br)cc2)o1 [Compound 144, 2-(4-bromobenzyl)-5-(1-(o-tolyl)prop-1-en-2-yl)-1,3,4-oxadiazole] | > 50 | 48.7 | 49.3 | > 50 | > 50 | > 50 | –
16 | Cc1ccc(Cc2nnc(/C=C/c3ccccc3C(C)C)o2)cc1C [Compound 146, 2-(3,4-dimethylbenzyl)-5-(2-isopropylstyryl)-1,3,4-oxadiazole] | 3.07 | 5.27 | 3.74 | 24.1 | > 50 | > 50 | –
17 | CC(C)c1ccccc1/C=C/c1nnc(C(C)c2ccccc2)o1 (stereo not drawn) [Compound 147, 2-(2-isopropylstyryl)-5-(1-phenylethyl)-1,3,4-oxadiazole] | 4.4 | 6 | 6 | > 50 | > 50 | > 50 | –
18 | CC(C)Cc1ccc(C(C)c2nnc(/C=C/c3ccccc3C(C)C)o2)cc1 (stereo not drawn) [Compound 148, 2-(1-(4-isobutylphenyl)ethyl)-5-(2-isopropylstyryl)-1,3,4-oxadiazole] | 45.1 | 39.8 | 38.9 | > 50 | > 50 | > 50 | –
19 | COc1ccccc1/C=C/c1nnc(Cc2ccc(Br)cc2)o1 [Compound 163, 2-(4-bromobenzyl)-5-(2-methoxystyryl)-1,3,4-oxadiazole] | > 50 | 32.3 | – | > 50 | > 50 | > 50 | 106.3
20 | CC(C)c1ccccc1/C=C/c1nnc(Cc2ccc(Br)c(F)c2)o1 [Compound 164, 2-(4-bromo-3-fluorobenzyl)-5-(2-isopropylstyryl)-1,3,4-oxadiazole] | 8.35 | 5.16 | 4.32 | > 50 | > 50 | > 50 | –
21 | Cc1ccc(F)c(Cc2nnc(/C=C/c3ccccc3C(C)C)o2)c1 [Compound 173, 2-(2-fluoro-5-methylbenzyl)-5-(2-isopropylstyryl)-1,3,4-oxadiazole] | 1.91 | 1.77 | 1.71 | 13.5 | 12.6 | 15.8 | –
22 | Cc1ccc(/C=C/c2nnc(Cc3cccc(Br)c3)o2)c(Cl)c1 [Compound 195, 2-(3-bromobenzyl)-5-(2-chloro-4-methylstyryl)-1,3,4-oxadiazole] | 5.74 | 6.14 | 5.79 | > 50 | > 50 | > 50 | –
23 | Fc1ccc(/C=C/c2nnc(Cc3cncc(Br)c3)o2)c(Cl)c1 [Compound 205, (E)-2-((5-bromopyridin-3-yl)methyl)-5-(2-chloro-4-fluorostyryl)-1,3,4-oxadiazole] | 34.9 | 43 | 21.6 | > 50 | > 50 | > 50 | –
24 | COc1ccccc1/C=C/c1nnc(Cc2cccc(Br)c2)o1 [Compound 210, 2-(3-bromobenzyl)-5-(2-methoxystyryl)-1,3,4-oxadiazole] | 36.2 | 47.3 | 23.5 | 48.1 | 48.1 | 46.8 | –
